In article PMC8296573, “Synthesis and Biological Evaluation of Fingolimod Derivatives as Antibacterial Agents” (ACS Omega, 2021):
In brackets after ≈: the same amount, converted by molar mass. Like-named read-outs stand apart in the source and are kept apart here.

Legend:
[1] = test system: S. aureus ATCC 25923; test: Antibacterial activity, pre-exposure (planktonic cells and biofilm formation); format: cell-based, Staphylococcus aureus; conditions: for MIC / inhibition at 5 µM / inhibition at 10 µM / inhibition at 15 µM / inhibition at 25 µM: Staphylococcus aureus, ATCC25923; for inhibition at 5 µM / inhibition at 10 µM / inhibition at 15 µM / inhibition at 25 µM / Average inhibition %, biofilms viability / Average inhibition %, planktonic cells viability: pre-exposure, ± SD
In short: (§1)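 Growth prevention was tested by adding compounds together with the inoculum. Plates were incubated 18 h at 37 °C. Viability was read by resazurin fluorescence and biomass by crystal violet absorbance at 595 nm.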

[2] = test system: S. aureus ATCC 25923; test: Antibacterial activity, post-exposure on preformed 18-h-old biofilms; format: cell-based, Staphylococcus aureus; conditions: ± SD; for inhibition at 25 µM / inhibition at 50 µM / inhibition at 100 µM / inhibition at 200 µM: Staphylococcus aureus; for inhibition at 25 µM: ATCC25923, 25 µM; for inhibition at 50 µM: ATCC25923, 50 µM; for inhibition at 100 µM: ATCC25923, 100 µM; for inhibition at 200 µM: ATCC25923, 200 µM
In short: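 Biofilms grown 18 h without compound, medium then replaced and compound added for a further 24 h. Planktonic OD and resazurin (20 μM final) fluorescence (ex 560/em 590 nm) read; washed biofilms stained with 20 μM resazurin 30 min at 37 °C, then ethanol-fixed and crystal violet-stained, absorbance 595 nm.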

[3] = test system: A. baumannii NCTC 13423; test: Antibacterial activity, pre-exposure; format: cell-based, Acinetobacter baumannii; conditions: for Average inhibition %, biofilms viability / Average inhibition %, planktonic cells viability / inhibition at 10 µM / inhibition at 15 µM / inhibition at 25 µM / inhibition at 50 µM: A. baumannii NCTC 13423, pre-exposure, ± SD; for inhibition at 10 µM / inhibition at 15 µM / inhibition at 25 µM / inhibition at 50 µM / MIC: Acinetobacter baumannii, NCTC13423
In short: as §1

[4] = test system: P. aeruginosa ATCC 9027; test: Antibacterial activity, pre-exposure; format: cell-based, Pseudomonas aeruginosa; conditions: for Average inhibition %, biofilms viability / Average inhibition %, planktonic cells viability / inhibition at 50 µM / inhibition at 100 µM / inhibition at 150 µM / inhibition at 200 µM: P. aeruginosa ATCC 9027, pre-exposure, ± SD; for MIC / inhibition at 50 µM / inhibition at 100 µM / inhibition at 150 µM / inhibition at 200 µM: Pseudomonas aeruginosa; for inhibition at 50 µM / inhibition at 100 µM / inhibition at 150 µM / inhibition at 200 µM: ATCC9027
In short: as §1

[5] = 10 µM, read-out: Average inhibition %, biofilms biomass
[6] = 10 µM, read-out: Average inhibition %, planktonic cells turbidity
[7] = 15 µM, read-out: Average inhibition %, biofilms biomass
[8] = 15 µM, read-out: Average inhibition %, planktonic cells turbidity
[9] = 25 µM, read-out: Average inhibition %, biofilms biomass
[10] = 25 µM, read-out: Average inhibition %, planktonic cells turbidity
[11] = read-out: Average inhibition %, biofilms biomass
[12] = read-out: Average inhibition %, planktonic cells turbidity
[13] = 50 µM, read-out: Average inhibition %, biofilms biomass
[14] = 50 µM, read-out: Average inhibition %, planktonic cells turbidity

`CCCCCCCCOc1ccc(CCC(N)(CO)CO)cc1` [Compound 48, 2-Amino-2-[4-(octyloxy)phenethyl]propane-1,3-diol] was tested, and the MIC ([1]; lowest concentration with no visible growth (>90% inhibition of turbidity and viability of planktonic cells), 18 h, read-out: MIC S. aureus ATCC 25923) was 15 to 25 µM (≈ 4.85 to 8.09 µg/mL), the inhibition at 5 µM ([1]; 5 µM, read-out: Average inhibition %, biofilms biomass) was 28.7 ± 25.2% and the inhibition at 5 µM ([1]; 5 µM, read-out: Average inhibition %, planktonic cells turbidity) was 13.6 ± 13.1%. The inhibition at 10 µM [1, 5] was 31.9 ± 24.6%, the inhibition at 10 µM [1, 6] was 40.8 ± 18.5% and the inhibition at 15 µM [1, 7] was 53.1 ± 42.8%. It also gave an inhibition at 15 µM [1, 8] of 47.2 ± 50%, an inhibition at 25 µM [1, 9] of 92 ± 5.9% and an inhibition at 25 µM [1, 10] of 97.4 ± 2.6%. For the same compound, the MIC ([1]; read-out: MIC (S. aureus)) was 15 to 25 µM (≈ 4.85 to 8.09 µg/mL), the “Average inhibition %, biofilms viability” value ([1]; 5 µM) was 22.4 ± 5.4% and the “Average inhibition %, planktonic cells viability” value ([1]; 5 µM) was 0 ± 0%. For the same compound, the “Average inhibition %, biofilms viability” value ([1]; 10 µM) was 16.7 ± 15%, the “Average inhibition %, planktonic cells viability” value ([1]; 10 µM) was 20.3 ± 20.7% and the “Average inhibition %, biofilms viability” value ([1]; 15 µM) was 48.8 ± 44.2%. For the same compound, the “Average inhibition %, planktonic cells viability” value ([1]; 15 µM) was 36.9 ± 54.3%, the “Average inhibition %, biofilms viability” value ([1]; 25 µM) was 99.5 ± 0.8% and the “Average inhibition %, planktonic cells viability” value ([1]; 25 µM) was 99.7 ± 0.2%. The “Average inhibition %, biofilms viability” value ([2]; 25 µM) was 21 ± 14.6%, the “Average inhibition %, planktonic cells viability” value ([2]; 25 µM) was 0.9 ± 1.6% and the “Average inhibition %, biofilms viability” value ([2]; 50 µM) was 42.3 ± 5.5%. For the same compound, the “Average inhibition %, planktonic cells viability” value ([2]; 50 µM) was 0 ± 0%, the “Average inhibition %, biofilms viability” value ([2]; 100 µM) was 52.5 ± 9.2% and the “Average inhibition %, planktonic cells viability” value ([2]; 100 µM) was 21.3 ± 18.5%. The “Average inhibition %, biofilms viability” value ([2]; 200 µM) was 52 ± 9.4%, the “Average inhibition %, planktonic cells viability” value ([2]; 200 µM) was 48.3 ± 23.5% and the inhibition at 25 µM [2, 11] was 47.6 ± 0.5%. The inhibition at 25 µM [2, 12] was 9.3 ± 10%, the inhibition at 50 µM [2, 11] was 57.8 ± 6.5% and the inhibition at 50 µM [2, 12] was 12.6 ± 10.9%. The inhibition at 100 µM [2, 11] was 65.9 ± 12.5%, the inhibition at 100 µM [2, 12] was 31.2 ± 10.9% and the inhibition at 200 µM [2, 11] was 72.5 ± 9.8%. The inhibition at 200 µM [2, 12] was 40 ± 13.2%, the “Average inhibition %, biofilms viability” value ([3]; 10 µM) was 0 ± 0% and the “Average inhibition %, planktonic cells viability” value ([3]; 10 µM) was 5.1 ± 0.7%. The “Average inhibition %, biofilms viability” value ([3]; 15 µM) was 1.4 ± 1.2%, the “Average inhibition %, planktonic cells viability” value ([3]; 15 µM) was 0 ± 0% and the “Average inhibition %, biofilms viability” value ([3]; 25 µM) was 68.3 ± 27.4%. For the same compound, the “Average inhibition %, planktonic cells viability” value ([3]; 25 µM) was 48.6 ± 48.9%, the “Average inhibition %, biofilms viability” value ([3]; 50 µM) was 93.8 ± 1.3% and the “Average inhibition %, planktonic cells viability” value ([3]; 50 µM) was 97.8 ± 0.3%. It also gave an inhibition at 10 µM [3, 5] of 0%, an inhibition at 10 µM [3, 6] of 0% and an inhibition at 15 µM [3, 7] of 0%. For the same compound, the inhibition at 15 µM [3, 8] was 0%, the inhibition at 25 µM [3, 9] was 38.9 ± 34.1% and the inhibition at 25 µM [3, 10] was 63.2 ± 30.2%. The inhibition at 50 µM [3, 13] was 56.9 ± 19.5%, the inhibition at 50 µM [3, 14] was 94.4 ± 2.3% and the MIC ([3]; pre-exposure, Inactive = no activity up to 50 μM, > = some inhibition but no MIC reached, read-out: MIC A. baumannii NCTC 13423) was > 50 µM. For the same compound, the MIC ([3]; supplementary molecular formula strings sheet, read-out: MIC (A. baumannii)) was > 50 µM, the “Average inhibition %, biofilms viability” value ([4]; 50 µM) was 27.9 ± 25.6% and the “Average inhibition %, planktonic cells viability” value ([4]; 50 µM) was 28 ± 9%. For the same compound, the “Average inhibition %, biofilms viability” value ([4]; 100 µM) was 20.3 ± 9.9%, the “Average inhibition %, planktonic cells viability” value ([4]; 100 µM) was 76.1 ± 19.4% and the “Average inhibition %, biofilms viability” value ([4]; 150 µM) was 17 ± 12.1%. For the same compound, the “Average inhibition %, planktonic cells viability” value ([4]; 150 µM) was 88 ± 8.4%, the “Average inhibition %, biofilms viability” value ([4]; 200 µM) was 12.2 ± 5.8% and the “Average inhibition %, planktonic cells viability” value ([4]; 200 µM) was 93.5 ± 0.6%. For the same compound, the MIC ([4]; ATCC9027, pre-exposure, Inactive = no activity up to 200 μM, > = some inhibition but no MIC reached, read-out: MIC P. aeruginosa ATCC 9027) was > 200 µM, the MIC ([4]; ATCC9027, supplementary molecular formula strings sheet, read-out: MIC (P. aeruginosa)) was > 200 µM and the inhibition at 50 µM [4, 13] was 14.7 ± 10.8%. The inhibition at 50 µM [4, 14] was 18.6 ± 7.4%, the inhibition at 100 µM ([4]; 100 µM, read-out: Average inhibition %, biofilms biomass) was 29.1 ± 19.9% and the inhibition at 100 µM ([4]; 100 µM, read-out: Average inhibition %, planktonic cells turbidity) was 83.9 ± 2.6%. It also gave an inhibition at 150 µM ([4]; 150 µM, read-out: Average inhibition %, biofilms biomass) of 37.8 ± 2.9%, an inhibition at 150 µM ([4]; 150 µM, read-out: Average inhibition %, planktonic cells turbidity) of 85.6 ± 3.3% and an inhibition at 200 µM ([4]; 200 µM, read-out: Average inhibition %, biofilms biomass) of 36.9 ± 6.7%. For the same compound, the inhibition at 200 µM ([4]; 200 µM, read-out: Average inhibition %, planktonic cells turbidity) was 87.8 ± 4.2%.
